Results from PMC6834076, “Crystal structures of the Bacillus subtilis prophage lytic cassette proteins XepA and YomS” (Acta Crystallographica. Section D, Structural Biology, 2019).

How the values were obtained:
XlyA = biological target: T1, XlyA (Bacillus subtilis, UniProt P39800); assay: thermal shift assay (SYPRO Orange); type: binding; conditions: (GlcNAc)3 concentration for this protein not stated (16 mM with HEWL)
T1 construct: full coding region, N-terminal His6 tag, vector pJOE5751 (plasmid pHWG1185), E. coli JM109, HisTrap; prophage PBSX gene
T1 sequence (P39800 2-297): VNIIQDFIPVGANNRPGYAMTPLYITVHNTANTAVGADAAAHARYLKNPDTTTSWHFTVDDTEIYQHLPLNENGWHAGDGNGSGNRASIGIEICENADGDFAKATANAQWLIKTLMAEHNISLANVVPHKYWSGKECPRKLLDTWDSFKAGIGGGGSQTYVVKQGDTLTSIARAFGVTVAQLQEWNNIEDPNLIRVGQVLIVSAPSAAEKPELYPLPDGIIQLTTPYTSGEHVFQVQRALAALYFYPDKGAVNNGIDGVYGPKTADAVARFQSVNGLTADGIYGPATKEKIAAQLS

XlyB = biological target: T2, XlyB (Bacillus subtilis, UniProt O34391); assay: thermal shift assay (SYPRO Orange); type: binding; conditions: (GlcNAc)3 concentration for this protein not stated (16 mM with HEWL)
T2 construct: full coding region, N-terminal His6 tag, vector pJOE5751 (plasmid pHWG1184), E. coli JM109, HisTrap; prophage PBSX gene
T2 sequence (O34391 2-317): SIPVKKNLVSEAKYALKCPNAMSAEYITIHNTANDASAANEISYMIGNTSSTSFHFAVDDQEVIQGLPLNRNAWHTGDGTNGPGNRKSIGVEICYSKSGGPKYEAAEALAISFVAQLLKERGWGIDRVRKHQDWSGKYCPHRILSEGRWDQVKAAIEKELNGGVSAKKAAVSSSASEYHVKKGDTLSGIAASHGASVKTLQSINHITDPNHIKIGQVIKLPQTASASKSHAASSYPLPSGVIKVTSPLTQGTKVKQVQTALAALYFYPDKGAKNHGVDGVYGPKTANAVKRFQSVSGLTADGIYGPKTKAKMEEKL

## CC(=O)N[C@H]1[C@H](O[C@H]2[C@H](O)[C@@H](NC(C)=O)C(O)O[C@@H]2CO)O[C@H](CO)[C@@H](O[C@@H]2O[C@H](CO)[C@@H](O)[C@H](O)[C@H]2NC(C)=O)[C@@H]1O (some centres unmarked) [triacetylchitotriose]
XlyA
  dTm: 2 °C
XlyB
  dTm: 2 °C
